Reference: patent US20120238762A1, “AZOLE DERIVATIVES AND METHODS FOR PRODUCING THE SAME, INTERMEDIATE COMPOUNDS FOR THE DERIVATIVES AND METHODS FOR PRODUCING THE SAME, AND AGRO-HORTICULTURAL AGENTS AND INDUSTRIAL MATERIAL PROTECTING AGENTS CONTAINING THE DERIVATIVES” (KUREHA CORPORATION, priority 2009, published 2012)

Experiments:
[1] = system: various phytopathogenic fungi for plants and hazardous microorganism for industrial materials; assay: microbe, parasite or virus in culture; assay type: cell-based; design: dose or concentration left out as unconfirmed
[2] = Mycelial growth inhibition on plate medium against industrial material deteriorating microorganisms, treatment at 50 mg/l; details: read-out: Growth inhibition grade
Experimental: Compound (I) was dissolved in 2 ml of dimethyl sulfoxide. 0.6 ml of this solution was added to 60 ml of a PDA medium (potato dextrose agar medium) and at about 60 degrees C., which was mixed thoroughly in a 100-ml conical flask, and poured into a dish, where it was solidified, thereby obtaining a plate medium containing the inventive compound at a certain concentration.
On the other hand, a subject microorganism previously cultured on a plate medium was cut out using a cork borer whose diameter was 4 mm, and inoculated to the test compound-containing plate medium described above. […] The growth degree of the microorganism on the test compound-containing plate medium was compared with the growth degree of the microorganism in the untreated group, and % mycelial growth inhibition was calculated by the following equation.
wherein R=% mycelial extension inhibition, dc=flora diameter in untreated plate, dt=flora diameter in treated plate.
The results obtained were evaluated as one of the 5 grades in accordance with the following criteria.
<Growth Inhibition Grade>
4: % Mycerial growth inhibition of less than 80 to 60% or higher
3: % Mycerial growth inhibition of less than 60 to 40% or higher
2: % Mycerial growth inhibition of less than 40 to 20% or higher

[3] = Alternaria alternata, read-out: Growth inhibition grade, A.m
[4] = Fusarium graminearum, read-out: Growth inhibition grade, F.g
[5] = Parastagonospora nodorum, read-out: Growth inhibition grade, P.n
[6] = Pyricularia oryzae, read-out: Growth inhibition grade, P.o
[7] = Rhynchosporium secalis, read-out: Growth inhibition grade, R.sec
[8] = Sclerotinia sclerotiorum, read-out: Growth inhibition grade, S.s
[9] = Ustilago nuda, read-out: Growth inhibition grade, U.n
[10] = read-out: Growth inhibition grade, B.c
[11] = read-out: Growth inhibition grade, F.c
[12] = read-out: Growth inhibition grade, G.f
[13] = read-out: Growth inhibition grade, P.h

Structure (SMILES)	inhibition [1, 3]	inhibition [1, 4]	inhibition [1, 5]	inhibition [1, 6]	inhibition [1, 7]	inhibition [1, 8]	inhibition [1, 9]	inhibition [1, 10]	inhibition [1, 11]	inhibition [1, 12]	inhibition [1, 13]	inhibition at 50 µg/mL [2]	melting point
OC(Cn1cncn1)(C1CC1(Cl)Cl)C1(Cl)CC1 (single isomer, unassigned) [I-2a, 1-(1-chlorocyclopropyl)-1-(2,2-dichlorocyclopropyl)-2-(1H-1,2,4-triazol-1-yl)ethanol]	> 80%	> 80%	> 80%	> 80%	> 80%	> 80%	> 80%	> 80%	> 80%	> 80%	> 80%	60 to 80%	–
OC(CC1CC1(Br)Br)(Cn1cncn1)C1(Cl)CC1 (single isomer, unassigned) [I-210a, 2-(1-chlorocyclopropyl)-1-(2,2-dibromocyclopropyl)-3-(1H-1,2,4-triazol-1-yl)propan-2-ol]	> 80%	> 80%	> 80%	> 80%	> 80%	> 80%	> 80%	> 80%	> 80%	> 80%	> 80%	60 to 80%	114 °C
OC(CC1CC1(Cl)Cl)(CC1CC1(Cl)Cl)Cn1cncn1 (single isomer, unassigned) [I-277a, 1,3-bis(2,2-dichlorocyclopropyl)-2-(1H-1,2,4-triazol-1-ylmethyl)propan-2-ol]	–	–	–	–	–	–	–	–	–	–	–	–	114 to 115 °C
OC(CC1CC1(Cl)Cl)(CC1CC1(Cl)Cl)Cn1cncn1 (single isomer, unassigned) [I-277b, 1,3-bis(2,2-dichlorocyclopropyl)-2-(1H-1,2,4-triazol-1-ylmethyl)propan-2-ol]	–	–	–	–	–	–	–	–	–	–	–	–	105 to 106.5 °C
OC(CCC1CC1(Cl)Cl)(Cn1cncn1)C1(Cl)CC1 (single isomer, unassigned) [I-607a, 2-(1-chlorocyclopropyl)-4-(2,2-dichlorocyclopropyl)-1-(1H-1,2,4-triazol-1-yl)butan-2-ol]	> 80%	> 80%	> 80%	> 80%	> 80%	> 80%	> 80%	> 80%	> 80%	> 80%	> 80%	–	130 to 131 °C
OC(CCC1CC1(Cl)Cl)(Cn1cncn1)C1(Cl)CC1 (single isomer, unassigned) [I-607b, 2-(1-chlorocyclopropyl)-4-(2,2-dichlorocyclopropyl)-1-(1H-1,2,4-triazol-1-yl)butan-2-ol]	–	–	–	–	–	–	–	–	–	–	–	60 to 80%	83 to 84 °C
